The values below come from patent US6083974A, “Benzothiophenecarboxamide derivatives and PGD2 antagonists comprising them” (Shionogi & Co., Ltd., priority 1996, dated 2000).

Experiment [1] deals with T1, PGD2 receptor (Homo sapiens, UniProt Q13258).
T1 construct: A suspension adjusted to contain platelet at a final concentration of; endogenous in cells; host or cells: washed human platelets from peripheral blood of a healthy volunteer
T1 sequence (Q13258 1-359): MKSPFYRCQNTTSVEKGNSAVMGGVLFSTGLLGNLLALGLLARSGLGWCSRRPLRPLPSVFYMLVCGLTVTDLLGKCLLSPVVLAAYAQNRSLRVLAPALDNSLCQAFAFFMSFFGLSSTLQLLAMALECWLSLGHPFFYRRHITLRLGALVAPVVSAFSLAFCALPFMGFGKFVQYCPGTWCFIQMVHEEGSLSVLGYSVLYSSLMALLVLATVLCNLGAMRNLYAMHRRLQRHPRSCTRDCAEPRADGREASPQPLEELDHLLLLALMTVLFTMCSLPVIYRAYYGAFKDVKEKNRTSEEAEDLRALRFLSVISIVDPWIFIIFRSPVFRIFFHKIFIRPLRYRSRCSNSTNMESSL
In words: Antagonistic activity against PGD2 receptor using human platelet (inhibition of PGD2-induced cAMP increase). It counts as cell-based. The conditions noted are these: human washed platelets, 0.1 μM PGD2, 3-isobutyl-1-methylxanthine 0.5 mM, 37° C.; read-out: IC50, inhibition of cAMP increased by PGD2. As for the experimental part: Evaluation of Antagonistic Activity Against PGD2 Receptor Using Human Platelet
Peripheral blood was obtained from a healthy volunteer using a syringe in which 1/9 volume of citric acid/dextrose solution has been previously added. The syringe was subjected to centrifugation at 180 g for 10 min to obtain the supernatant (PRP:platelet rich plasma). the resultant PRP was washed 3 times with a washing buffer and the number of platelet was counted with a micro cell counter. A suspension adjusted to contain platelet at a final concentration of 5×10^8 /ml was warmed at 37° C., and then subjected to the pre-treatment with 3-isobutyl-1-methylxanthine (0.5 mM) for 5 min. To the suspension was added a test compound diluted at various concentration. Ten-minute later, the reaction was induced by the addition of 0.1 μM PGD2 and , 2-minute later, stopped by the addition of hydrochloric acid. The platelet was destroyed with an ultrasonic homogenizer. After centrifugation, the cAMP in the supernatant was determined by radioummunoassay. PGD2 receptor antagonism of a drug was evaluated as follows. The inhibition rate regarding cAMP increased by the addition of PGD2 was determined at individual concentration, and then the concentration of the drug required for 50% inhibition (IC50) was calculated.

Experiment [2] addresses T1, PGD2 receptor. The experiment is described as follows: Binding to PGD2 Receptor (inhibition of [3H]PGD2 binding to human platelet membrane fraction). The settings on record: human platelet membrane fraction (0.1 mg), 5 nM [3H]PGD2, pH 7.4, 4° C., 90 min. The method, then:
(1) Preparation of Human Platelet Membrane Fraction
Blood sample was obtained using a plastic syringe containing 3.8% sodium citrate from the vein of healthy volunteers (adult male and female), put into a plastic test tube and mixed gently by rotation. The sample was then centrifuged at 1800 rpm, 10 min at room temperature, and the supernatant containing PRP (platelet-rich plasma) was collected. The PRP was recentrifuged at2300 rpm, 22 min at room temperature to obtain platelets. The platelets were homogenized using a homogenizer (Ultra-Turrax) followed by centrifugation 3 times at 20,000 rpm, 10 min at 4° C. to obtain a platelet membrane fraction. After protein determination, the membrane fraction was adjusted to 2 mg/ml and preserved in a refrigerator at -80° C. until use.
(2) Binding to PGD2 Receptor
To a binding-reaction solution (50 mM Tris/HCl, pH 7.4, 5 mM MgCl2) (0.2 ml) were added to the human platelet membrane fraction (0.1 mg) and 5 nM [^3 H]PGD2 (115 Ci/mmol), and reacted at 4° C. for 90 min. After the reaction completed, the reaction mixture was filtered through a glass fiber filter paper, washed several times with cooled saline, and measured the radioactivity retained on the filter paper. The specific binding was calculated by subtracting the non-specific binding (the binding in the presence of 10 μM PGD2) from the total binding. The inhibitory activity of each compound was expressed as the concentration required for 50% inhibition (IC50), which was determined by depicting a substitution curve by plotting the binding ratio (%) in the presence of each compound, where the binding ratio in the absence of a test compound is 100%.

The test system of another experiment is eosinophils. The experiment is described as follows: Infiltration of eosinophils in the nasal cavity by an antigen challenge. The conditions noted are these: guinea pig, oral 1, 3 and 10 mg/kg, 1 hr before antigen challenge; marked columns not given. Type of experiment: in vivo. The method, then:
Activity on Infiltration of Eosionophils in the Nasal Cavity by an Antigen Challenge
To a Hartley male guinea pig was injected intraperitoneally cyclophosphamide (30 mg/kg), after 2 day 1 ml of suspension containing 1 mg of ovalbumin (OVA) and 100 mg of aluminum hydroxide was injected intraperitoneally. After 3 weeks, 1 ml of mixture of OVA (10 μg) and aluminum hydroxide (100 mg) was intraperitoneally injected as additional immunization to sensitize systemically. After the lapse of 3 weeks, local sensitization, each 10 μl of 1% OVA solution was dripped in both nasal cavities four times at 2-4 day intervals. After 5-7 days from the final sensitization, nasal antigen challenge was performed by dripping 10 μl of 1% OVA solution to the guinea pigs in the both nasal cavity. Five hours after nasal challenge, the guinea pigs were exsanguinated under the anesthetization. The nasal airways were washed by infusing 10 ml of saline, and the washings were collected. The washing were centrifuged, the cell pellets were resuspended in 100 μl of saline, and the total cells were counted by the Turk stain. Then smear samples were prepared, and the cells were classified after the May-Grunwald-Giemsa stain. The eosinophil number was determined by multiplying the rate of eosinophils with the total cells. […]

The test system of the next experiment is Hartley male guinea pig. In words: Nasal blocking model (intranasal pressure after OVA antigen exposure). The conditions noted are these: oral 60 min before 3% OVA antigen exposure, dose not given. Type of experiment: in vivo. As for the experimental part: Experiment Using Nasal Blocking Model
The method used for measuring the intranasal pressure for evaluating the anti-nasal blockage using guinea pigs is described below.
A 1% ovalbumin (OVA) solution was treated with an ultrasonic nebulizer to obtain an aerosol. Hartley male guinea pig was sensitized by inhaling twice the aerosol for 10 min at one-week interval. Seven-day after the sensitization, the guinea pig was exposed to an antigen to initiate the reaction. Briefly, the trachea was incised under the anesthesia with pentobarbital (30 mg/kg, i.p.) and cannulas were inserted at the pulmonary side was connected with an artificial respirator that provides 4 ml air 60 times/min. After arresting the spontaneous respiration of the guinea pig with Gallamin (2 mg/kg, i.v.), air was supplied to the snout side with an artificial respirator at the frequency of 70 times/min, and the flow rate of 4 ml air/time, and the atmospheric pressure required for the aeration was measured by the use of a transducer fitted at the branch. The measurement was used as a parameter of the nasal cavity resistance. The exposure of an antigen was carried out by generating aerosol of 3% OVA solution for 3 min between the respirator and the nasal cavity cannula. The test drug was administered orally 60 min before the antigen exposure. […]

What is called IC50 is the concentration that inhibits the measured activity by half. In the case of `CC1(C)[C@H]2C[C@@H](C/C=C\CCCC(=O)O)[C@@H](NC(=O)c3csc4ccc(O)cc34)[C@@H]1C2` [IA-c-1], the half-inhibitory concentration (IC50) at PGD2 receptor [1] stood at 55 nM.

On to `CC1(C)[C@H]2C[C@H](C/C=C\CCCC(=O)O)[C@@H](NC(=O)c3csc4cc(O)ccc34)[C@@H]1C2` [IA-a-7], for which the IC50 stood at 2.8 nM at PGD2 receptor [1] and 1.3 nM on PGD2 receptor [2].

`CC1(C)[C@H]2C[C@@H](C/C=C/CCCC(=O)O)[C@@H](NC(=O)c3csc4ccc(O)cc34)[C@@H]1C2` [IA-c-2]: on PGD2 receptor [1], the IC50 was determined as 61 nM.

Take `CC1(C)[C@H]2C[C@H](C/C=C\CCCC(=O)O)[C@@H](NC(=O)c3csc4ccc(O)cc34)[C@@H]1C2` [IA-a-5]: the “inhibition of infiltration of eosinophils in the nasal cavity, significance versus vehicle (FIG. 1)” value with eosinophils is reported as “significantly different from vehicle at p<0.01”. Besides, the results for the IC50 at PGD2 receptor [1] and at PGD2 receptor [2] were 1.3 nM and 0.4 nM, respectively. Besides, in the experiment on Hartley male guinea pig, the “Inhibitory Rate, intranasal pressure AUC for 30 min vs vehicle” value is 96%.

For the compound `CC1(C)[C@H]2C[C@@H](NC(=O)c3csc4ccc(O)cc34)[C@H](C/C=C\CCCC(=O)O)[C@@H]1C2` [IB-b'-3], the IC50 at PGD2 receptor [1] amounted to 57 nM.

Take `CC1(C)[C@H]2C[C@H](C/C=C/CCCC(=O)O)[C@@H](NC(=O)c3csc4ccc(O)cc34)[C@@H]1C2` [IA-a-17]: the half-maximal inhibitory concentration (IC50) at PGD2 receptor [1] amounted to 28 nM.

Regarding `CC(=O)Oc1ccc2scc(C(=O)N[C@@H]3[C@@H](C/C=C\CCCC(=O)O)C[C@H]4C[C@@H]3C4(C)C)c2c1` [IA-a-9], the half-inhibitory concentration (IC50) amounted to 0.21 nM at PGD2 receptor [1] and 6.5 nM on PGD2 receptor [2].

For `CC1(C)[C@H]2C[C@H](NC(=O)c3csc4ccccc34)[C@@H](C/C=C\CCCC(=O)O)[C@@H]1C2` [IB-a'-1], the 50% inhibitory concentration (IC50) on PGD2 receptor [1] turned out to be 41 nM.

`CC1(C)[C@H]2C[C@H](C/C=C\CCCC(=O)O)[C@@H](NC(=O)c3csc4ccc(Br)cc34)[C@@H]1C2` [IA-a-2]: the IC50 on PGD2 receptor [2] turned out to be 3.3 nM.
